Measured values taken from patent publication US20040087561A1, “Treatment of sexual dysfunction” (priority 2000, published 2004).

Key:
conscious male rat = experiment: Penile intracavernosal pressure in the conscious male rat (telemetry); assay type: in vivo
Method: In addition to treating women with FSD, bombesin antagonists will be useful in treating male erectile dysfunction (MED. Both the non-selective BB1/2 antagonists (Compound 1; 10 mg/kg sc) and the selective BB I receptor antagonist (Compound 3; 15 mg/kg sc) is pro-erectile in a conscious rat model of penile erection (FIGS. 24 and 25). Erectile responses were recorded by measuring intracavemosal pressure using surgically implanted telemetric device. The specific details the surgical procedures, data acquisition and analysis can be found in detail in Bernabe 1999.
Compound 1 and compound 3 were dissolved in 50% O-cyclodextrin in saline. They were administered at a dose of 15 mg/kg subcutaneously (sc). […] These increases equate to penile erection. Both Compounds 1 and 3 induced a number of erections in a similar manner to those observed with apomorphine or melanotan-II—both of which are clinically proven agents that are effective in the treatment of MED. Moreover the amplitude of the increases observed were similar to those observed with apomorphine or melanotan-II. The mechanism of action is thought to be similar to the effects on female genital flow ie CNS potentiation of the descending neuronal pathways that control penile erection.

[1] = tested on: ovariectomised female Sprague Dawley rats; experiment: Female rat sexual receptivity (lordosis quotient); assay type: in vivo; details: Example 2; quinelorane 6.25 μg/kg s.c., 90 min; Compound (1) 10 mg/kg i.p., 1 h
Method: Ovariectomised adult female Sprague Dawley rats (180-200 g, from Charles River) were housed in groups of 6 in a reversed lighting system of 12 h light:dark (lights off 7.00-19.00 h). Two weeks after ovariectomy they were used for sexual activity tests. The experiments started at least 5 h into the dark period.
Compound (1) was dissolved in 100% β-cyclodextrin and then diluted with saline to a final solution of 50% 2-hydroxypropyl-β-cyclodextrin. It was administered intraperitoneally (i.p.) at a dose of 10 mg/kg, in a dosing volume of 1 ml/kg. Quinelorane (6.25 μg/kg) was dissolved in water and administered s.c. as positive control. Forty eight hours before testing, ovariectomised female rats (as described above), were primed with 5 μg oestradiol benzoate dissolved in corn oil and injected subcutaneously. […] The females were placed with a series of vigorous male rats and subjected to 10 mounts.
The lordotic response of the animal was recorded and expressed as a percentage of the mounts (i.e. lordosis quotient, LQ), as previously described. Animals showing LQ<20 were considered non-receptive and were included in the study. Each rat was tested prior to administration of the compound and then tested similarly post-injection. The pre-treatment times were 1 h for Compound (1) and vehicle (50% β-cyclodextrin, i.p.) or 90 min for quinelorane.
The above compound was dissolved in PEG200 vehicle and administered orally. Quinelorane dihydrochloride (LY 163,502, 6.25 μg/kg) was dissolved in water and administered subcutaneously (s.c.), as a positive control. Both compounds were administered in a 1 ml/kg volume.
Forty eight hours before tests, the animals were primed with 5 μg oestradiol benzoate (Sigma Chemical. Co. Ltd., UK) dissolved in corn oil and injected subcutaneously. The females were placed with a series of vigorous male rats and subjected to 10 mounts. The lordotic response of the animal was recorded and expressed as a percentage of the mounts (i.e. lordosis quotient, LQ). […] Animals showing higher LQ were not included in the study. Each rat was tested prior to administration of the compound and then tested similarly at 1 h and 90 min post-injection of the above compound or quinelorane respectively.

## COc1ccc(C2(CNC(=O)[C@](C)(Cc3c[nH]c4ccccc34)NC(=O)Nc3ccc([N+](=O)[O-])cc3)CCCCC2)nc1 [Compound (1), (S) 3-(1H-Indol-3-yl)-N-[1-(5-methoxy-pyridin-2-yl)-cyclohexyl-methyl]-2-methyl-2-[3-(4-nitro-phenyl)-ureido]-propionamide]
Conscious male rat; Compound 1 10 mg/kg sc, Compound 3 15 mg/kg sc, conscious rat model
  penile erection (erectile response): pro-erectile
Conscious male rat; one hour after 10 mg/kg sc Compound 1, 45 minutes after 15 mg/kg sc compound 3, conscious rat
  intracavernosal pressure: significant increases in intracavernosal pressure
[1]
  lordosis quotient (LQ) compared to LQ before administration: significant (P<0.05) stimulatory effect on the LQ
